Reference: patent US20260083851A1 (AVILAR THERAPEUTICS, INC., priority 2022, published 2026)
pKd: −log10 of the molar value.

Target: T1, ASGP receptor (biotinylated ASGPR) (Homo sapiens, UniProt P07306)
T1 construct: biotin (biotinylated)
T1 sequence (P07306 1-291): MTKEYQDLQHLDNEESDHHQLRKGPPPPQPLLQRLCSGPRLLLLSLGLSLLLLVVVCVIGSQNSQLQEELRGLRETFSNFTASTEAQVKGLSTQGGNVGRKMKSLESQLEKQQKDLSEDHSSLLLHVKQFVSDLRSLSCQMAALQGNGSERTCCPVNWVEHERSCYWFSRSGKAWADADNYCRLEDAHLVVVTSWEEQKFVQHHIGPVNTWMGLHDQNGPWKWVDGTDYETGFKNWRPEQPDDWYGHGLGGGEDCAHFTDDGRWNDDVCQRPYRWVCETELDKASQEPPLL
Assay type: binding
Conditions: SPR, Biacore 8K, 25° C.; Table 1A; read-out: ASGPR KD

Row | Structure (SMILES) | pKd
1 | O=C(O)COc1ccc(CC(=O)NC[C@H]2OC[C@H](Nc3cncc(C(F)(F)F)n3)[C@@H](O)[C@H]2O)cc1 [A1, 2-(4-(2-((((2R,3R,4R,5S)-3,4-dihydroxy-5-((6-(trifluoromethyl)pyrazin-2-yl)amino)tetrahydro-2H-pyran-2-yl)methyl)amino)-2-oxoethyl)phenoxy)acetic acid] | > 5.00
2 | O=C(NC[C@H]1OC[C@H](Nc2cncc(C(F)(F)F)n2)[C@@H](O)[C@H]1O)c1ccc2c(c1)CCNC2 [A3, N-(((2R,3R,4R,5S)-3,4-dihydroxy-5-((6-(trifluoromethyl)pyrazin-2-yl)amino)tetrahydro-2H-pyran-2-yl)methyl)-1,2,3,4-tetrahydroisoquinoline-6-carboxamide] | > 5.00
3 | O=C(NC[C@H]1OC[C@H](Nc2cncc(C(F)(F)F)n2)[C@@H](O)[C@H]1O)c1ncccn1 [A4, N-(((2R,3R,4R,5S)-3,4-dihydroxy-5-((6-(trifluoromethyl)pyrazin-2-yl)amino)tetrahydro-2H-pyran-2-yl)methyl)pyrimidine-2-carboxamide] | > 5.00
4 | COCCO[C@H]1O[C@H](CO)[C@H](O)[C@H](O)[C@H]1Nc1cncc(C(F)(F)F)n1 [A5] | > 5.00
5 | O=C(NC[C@H]1OC[C@H](Nc2cncc(C(F)(F)F)n2)[C@@H](O)[C@H]1O)c1ccc2[nH]cnc2c1 [A6, N-(((2R,3R,4R,5S)-3,4-dihydroxy-5-((6-(trifluoromethyl)pyrazin-2-yl)amino)tetrahydro-2H-pyran-2-yl)methyl)-1H-benzo[d]imidazole-5-carboxamide] | > 5.00
6 | O=C(NC[C@H]1OC[C@H](Nc2cncc(C(F)(F)F)n2)[C@@H](O)[C@H]1O)c1ccc(-c2ccccc2)nc1 [A7, N-(((2R,3R,4R,5S)-3,4-dihydroxy-5-((6-(trifluoromethyl)pyrazin-2-yl)amino)tetrahydro-2H-pyran-2-yl)methyl)-6-phenylnicotinamide] | > 5.00
7 | O=C(NC[C@H]1OC[C@H](Nc2cncc(C(F)(F)F)n2)[C@@H](O)[C@H]1O)c1cnc2ccccc2c1 [A8, N-(((2R,3R,4R,5S)-3,4-dihydroxy-5-((6-(trifluoromethyl)pyrazin-2-yl)amino)tetrahydro-2H-pyran-2-yl)methyl)quinoline-3-carboxamide] | > 5.00
8 | O[C@@H]1[C@H](O)[C@@H](Nc2cncc(C(F)(F)F)n2)CO[C@@H]1CN1CCN(Cc2ccccc2)CC1 [A9, (2R,3R,4R,5S)-2-((4-benzylpiperazin-1-yl)methyl)-5-((6-(trifluoromethyl)pyrazin-2-yl)amino)tetrahydro-2H-pyran-3,4-diol] | > 5.00
9 | O=C(NC[C@H]1OC[C@H](Nc2cncc(C(F)(F)F)n2)[C@@H](O)[C@H]1O)c1ccc(-c2ccccc2)cc1 [A10, N-(((2R,3R,4R,5S)-3,4-dihydroxy-5-((6-(trifluoromethyl)pyrazin-2-yl)amino)tetrahydro-2H-pyran-2-yl)methyl)-[1,1′-biphenyl]-4-carboxamide] | > 5.00
10 | O=C(NC[C@H]1OC[C@H](Nc2cncc(C(F)(F)F)n2)[C@@H](O)[C@H]1O)c1ccc2occc2c1 [A11, N-(((2R,3R,4R,5S)-3,4-dihydroxy-5-((6-(trifluoromethyl)pyrazin-2-yl)amino)tetrahydro-2H-pyran-2-yl)methyl)benzofuran-5-carboxamide] | > 5.00
11 | O=C(CC12CC3CC(CC(C3)C1)C2)NC[C@H]1OC[C@H](Nc2cncc(C(F)(F)F)n2)[C@@H](O)[C@H]1O [A12, 2-((3R,5R,7R)-adamantan-1-yl)-N-(((2R,3R,4R,5S)-3,4-dihydroxy-5-((6-(trifluoromethyl)pyrazin-2-yl)amino)tetrahydro-2H-pyran-2-yl)methyl)acetamide] | > 5.00
12 | O=C(NC[C@H]1OC[C@H](Nc2cncc(C(F)(F)F)n2)[C@@H](O)[C@H]1O)c1nc2ccccc2[nH]1 [A13, N-(((2R,3R,4R,5S)-3,4-dihydroxy-5-((6-(trifluoromethyl)pyrazin-2-yl)amino)tetrahydro-2H-pyran-2-yl)methyl)-1H-benzo[d]imidazole-2-carboxamide] | > 5.00
13 | O=C(NC[C@H]1OC[C@H](Nc2cncc(C(F)(F)F)n2)[C@@H](O)[C@H]1O)c1cc2ccccc2[nH]1 [A14, N-(((2R,3R,4R,5S)-3,4-dihydroxy-5-((6-(trifluoromethyl)pyrazin-2-yl)amino)tetrahydro-2H-pyran-2-yl)methyl)-1H-indole-2-carboxamide] | > 5.00
14 | O=C(NC[C@H]1OC[C@H](Nc2cncc(C(F)(F)F)n2)[C@@H](O)[C@H]1O)C12CC3CC(CC(C3)C1)C2 [A15, (1S,3S)—N-(((2R,3R,4R,5S)-3,4-dihydroxy-5-((6-(trifluoromethyl)pyrazin-2-yl)amino)tetrahydro-2H-pyran-2-yl)methyl)adamantane-1-carboxamide] | > 5.00
15 | O=C(O)c1ccc(N2CCC(CN3CCN(C[C@H]4OC[C@H](Nc5cncc(C(F)(F)F)n5)[C@@H](O)[C@H]4O)CC3)CC2)nn1 [A16, 6-(4-((4-(((2R,3R,4R,5S)-3,4-dihydroxy-5-((6-(trifluoromethyl)pyrazin-2-yl)amino)tetrahydro-2H-pyran-2-yl)methyl)piperazin-1-yl)methyl)piperidin-1-yl)pyridazine-3-carboxylic acid] | > 5.00
16 | O=C(NC[C@H]1OC[C@H](Nc2cncc(C(F)(F)F)n2)[C@@H](O)[C@H]1O)c1ccc2ncncc2c1 [A17, N-(((2R,3R,4R,5S)-3,4-dihydroxy-5-((6-(trifluoromethyl)pyrazin-2-yl)amino)tetrahydro-2H-pyran-2-yl)methyl)quinazoline-6-carboxamide] | > 5.00
17 | O=C(NC[C@H]1OC[C@H](Nc2cncc(C(F)(F)F)n2)[C@@H](O)[C@H]1O)C1C[C@@H]2CC[C@H]1C2 (stereo partly drawn) [A18, (1S,4R)—N-(((2R,3R,4R,5S)-3,4-dihydroxy-5-((6-(trifluoromethyl)pyrazin-2-yl)amino)tetrahydro-2H-pyran-2-yl)methyl)bicyclo[2.2.1]heptane-2-carboxamide] | > 5.00
18 | O[C@@H]1[C@H](O)[C@@H](Nc2cncc(C(F)(F)F)n2)CO[C@@H]1CNc1ncccn1 [A19, (2R,3R,4R,5S)-2-((pyrimidin-2-ylamino)methyl)-5-((6-(trifluoromethyl)pyrazin-2-yl)amino)tetrahydro-2H-pyran-3,4-diol] | > 5.00
19 | O=C(NC[C@H]1OC[C@H](Nc2cncc(C(F)(F)F)n2)[C@@H](O)[C@H]1O)c1cnccn1 [A20, N-(((2R,3R,4R,5S)-3,4-dihydroxy-5-((6-(trifluoromethyl)pyrazin-2-yl)amino)tetrahydro-2H-pyran-2-yl)methyl)pyrazine-2-carboxamide] | > 5.00
20 | N#CC[C@H]1OC[C@H](Nc2cncc(C(F)(F)F)n2)[C@@H](O)[C@H]1O [A21, 2-((2R,3R,4R,5S)-3,4-dihydroxy-5-((6-(trifluoromethyl)pyrazin-2-yl)amino)tetrahydro-2H-pyran-2-yl)acetonitrile] | > 5.00
21 | O=C(NC[C@H]1OC[C@H](Nc2cncc(C(F)(F)F)n2)[C@@H](O)[C@H]1O)c1cnc[nH]1 [A22, N-(((2R,3R,4R,5S)-3,4-dihydroxy-5-((6-(trifluoromethyl)pyrazin-2-yl)amino)tetrahydro-2H-pyran-2-yl)methyl)-1H-imidazole-5-carboxamide] | > 5.00
